Test results reported in PubChem BioAssay AID1963867 (Molecular Pharmacology Branch, DTP, NCI, 2024).

Tested on: KRAS-mutant PDC tumor spheroid with HUVEC/MSC, viability
Assay: Anticancer human tumor 327498-153-R-J2-PDC patient-derived uterine carcinosarcoma cell line growth inhibition [KRAS2]
Conditions: for IC50: curve of first compound; for viability, T/C: stronger effect = lower value
Text: Multicellular complex tumor spheroid response to RAS pathway inhibitors in combination with a targeted agents in patient-derived cell lines with oncogenic KRAS variants from multiple cancer types
A high-throughput screen of multi-cell type tumor spheroids was designed to identify active combinations of targeted small molecules and KRAS pathway inhibitors. Complex spheroids include a stromal component modeled by human endothelial cells (HUVEC) and fibroblasts modeled by human mesenchymal stem cells (MSCs). The concentration ranges selected for each drug and investigational agent were based upon clinically achievable concentrations if the clinical Cmax of the agent was known.
Compounds. The drugs and investigational agents: BI-3406 (NSC825286), BAY-293 (NSC824723), batoprotafib (TNO155; NSC825523), sotorasib (AMG 510; NSC818433), MRTX1257 (NSC819558), elimusertib (BAY 1895344; NSC800525), molibresib (GSK525762; NSC774829), temuterkib (LY3214996; NSC803410), venetoclax (NSC766270), alisertib (NSC759677), olaparib (NSC753686), talazoparib (NSC767125), erdafitinib (NSC781556), ipatasertib (NSC767898), cabozantinib (NSC761068), nintedanib (NSC756659), abemaciclib (NSC768073), docetaxel (NSC628503), trametinib (NSC758246), and sapanisertib (NSC764658) were obtained from the National Cancer Institute (NCI) Developmental Therapeutics Program Chemical Repository. The FDA-approved anticancer drug set is available from the Developmental Therapeutics Program. […] The stock solutions were prepared in dimethyl sulfoxide (DMSO, Sigma-Aldrich, St. Louis, MO, cat. D2650) at 800-fold the tested concentration and stored at -70 degrees C prior to their use. All drugs and investigational agents were tested over a range starting from a high concentration at or near the clinical Cmax and decreasing in half-log increments. If the clinical Cmax for an agent had not been determined, the highest concentration tested was 10 microM.
Cell Culture. All cells were maintained in an incubator at 37 degrees C and 5% CO2 with 95% humidity. The PDC lines were cultured according to standard operating procedures established by the NCI PDMR (https://pdmr.cancer.gov/sops/default.htm). Briefly, all PDCs were thawed and cultured in Matrigel-coated flasks prepared with a working solution of 1X Ham's F-12 nutrient mix, without supplementation (Invitrogen, Waltham, MA, cat. 11765054), 100 U/mL penicillin-streptomycin (Invitrogen, cat. 15140122), and 2.5% Matrigel (Corning Inc., Corning, NY, cat. 354248) for the first three passages. All PDCs were cultured in complete DMEM/F-12 media containing advanced DMEM/F-12 (Invitrogen, cat. 12634028), 4.9% defined fetal bovine serum, heat inactivated (HyClone Laboratories Inc., Logan, UT, cat. SH30070.03HI), 389 ng/mL hydrocortisone (Sigma-Aldrich, cat. H4001), 9.7 ng/mL human EGF recombinant protein (Invitrogen, cat. PHG0313), 23.4 microg/mL adenine (Sigma-Aldrich, cat. A2786), 97.3 U/mL penicillin-streptomycin (Invitrogen, cat. 15140122), 1.9 mM L-glutamine (Invitrogen, cat. 25030081), and 9.7 microM Y-27632 dihydrochloride (Tocris Bioscience, Bristol, United Kingdom, cat. 1254). The PDCs were cultured in complete DMEM/F12 media without 9.7 microM Y-27632 dihydrochloride for at least two passages prior to the screen. The established cell line HOP-62 was cultured in RPMI 1640 medium, HEPES (Invitrogen, cat. 22400105) with 10% defined fetal bovine serum (HyClone Laboratories Inc., cat. SH30070.03) and 2 mM L-glutamine (Invitrogen, cat. 25030081). The pooled donor HUVEC were cultured in endothelial cell growth medium 2 (PromoCell, Heidelberg, Germany, cat. C-22011) and the hMSC were cultured in mesenchymal stem cell growth medium 2 (PromoCell, cat. C-28009). For all experiments, HUVEC and hMSC were used at passages </=5, while the malignant cell lines were used at passages </=15. […]
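Note: spheroids exposed to agents for seven days before reading.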
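Throughout, for viability, T/C: 100% = DMSO vehicle wells so lower means fewer viable cells.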

CC(=O)Nc1cccc(-n2c(=O)n(C3CC3)c(=O)c3c(Nc4ccc(I)cc4F)n(C)c(=O)c(C)c32)c1 + C=CC(=O)N1CCN(c2nc(=O)n(-c3c(C)ccnc3C(C)C)c3nc(-c4c(O)cccc4F)c(F)cc23)C(C)C1
IC50 (second compound 0.1 µM): 6.05 nM | IC50 (second compound 0.316 µM): 3.57 nM | IC50 (second compound 1 µM): 4.92 nM | IC50 (second compound 3.16 µM): 2.38 nM | IC50 (second compound 10 µM): < 0.1 nM | viability, T/C (second compound 0.1 µM, first compound 0.0001 µM): 70.5% | viability, T/C (second compound 0.1 µM, first compound 0.000316 µM): 60.1% | viability, T/C (second compound 0.1 µM, first compound 0.001 µM): 61.5% | viability, T/C (second compound 0.1 µM, first compound 0.00316 µM): 57.9% | viability, T/C (second compound 0.1 µM, first compound 0.01 µM): 45.2% | viability, T/C (second compound 0.1 µM, first compound 0.0316 µM): 16.2% | viability, T/C (second compound 0.316 µM, first compound 0.0001 µM): 65.7% | viability, T/C (second compound 0.316 µM, first compound 0.000316 µM): 67.2% | viability, T/C (second compound 0.316 µM, first compound 0.001 µM): 57.6% | viability, T/C (second compound 0.316 µM, first compound 0.00316 µM): 51.5% | viability, T/C (second compound 0.316 µM, first compound 0.01 µM): 37.7% | viability, T/C (second compound 0.316 µM, first compound 0.0316 µM): 14.5% | viability, T/C (second compound 1 µM, first compound 0.0001 µM): 60% | viability, T/C (second compound 1 µM, first compound 0.000316 µM): 63% | viability, T/C (second compound 1 µM, first compound 0.001 µM): 56.3% | viability, T/C (second compound 1 µM, first compound 0.00316 µM): 53.1% | viability, T/C (second compound 1 µM, first compound 0.01 µM): 44.4% | viability, T/C (second compound 1 µM, first compound 0.0316 µM): 13.3% | viability, T/C (second compound 3.16 µM, first compound 0.0001 µM): 60.7% | viability, T/C (second compound 3.16 µM, first compound 0.000316 µM): 57.2% | viability, T/C (second compound 3.16 µM, first compound 0.001 µM): 54.5% | viability, T/C (second compound 3.16 µM, first compound 0.00316 µM): 49.4% | viability, T/C (second compound 3.16 µM, first compound 0.01 µM): 31.9% | viability, T/C (second compound 3.16 µM, first compound 0.0316 µM): 15.3% | viability, T/C (second compound 10 µM, first compound 0.0001 µM): 46.5% | viability, T/C (second compound 10 µM, first compound 0.000316 µM): 47.7% | viability, T/C (second compound 10 µM, first compound 0.001 µM): 45.1% | viability, T/C (second compound 10 µM, first compound 0.00316 µM): 41.2% | viability, T/C (second compound 10 µM, first compound 0.01 µM): 24.1% | viability, T/C (second compound 10 µM, first compound 0.0316 µM): 13.4%
